Legend:
[1] = tested on: interferon (α) (IFN-α); assay: Cytokine induction in human cells: IFN-α secreted by PBMC into culture media (ELISA); assay type: cell-based; conditions: for Maximal Response IFN / Minimum Effective Concentration IFN: median where tested in more than one experiment; for Maximal Response (pg/mL) IFN: maximal response in dose response curve, median
From the text: (§1) Cytokine Induction in Human Cells
(§2) An in vitro human blood cell system is used to assess cytokine induction. Activity is based on the measurement of interferon (α) and tumor necrosis factor (α) (IFN-α and TNF-α, respectively) secreted into culture media as described by Testerman et. al. in “Cytokine Induction by the Immunomodulators Imiquimod and S-27609”, Journal of Leukocyte Biology, 58, 365-372 (September, 1995).
(§3) Blood Cell Preparation for Culture
(§4) Whole blood from healthy human donors is collected by venipuncture into vacutainer tubes or syringes containing EDTA. Peripheral blood mononuclear cells (PBMC) are separated from whole blood by density gradient centrifugation using HISTOPAQUE-1077 (Sigma, St. Louis, Mo.) or Ficoll-Paque Plus (Amersham Biosciences Piscataway, N.J.). Blood is diluted 1:1 with Dulbecco's Phosphate Buffered Saline (DPBS) or Hank's Balanced Salts Solution (HBSS). Alternately, whole blood is placed in Accuspin (Sigma) or LeucoSep (Oreiner Bio-One, Inc., Longwood, Fla.) centrifuge frit tubes containing density gradient medium. The PBMC layer is collected and washed twice with DPBS or HBSS and re-suspended at 4×10^6 cells/mL in RPMI complete. The PBMC suspension is added to 96 well flat bottom sterile tissue culture plates containing an equal volume of RPMI complete media containing test compound.
(§5) The compounds are solubilized in dimethyl sulfoxide (DMSO). The DMSO concentration should not exceed a final concentration of 1% for addition to the culture wells. The compounds are generally tested at concentrations ranging from 30-0.014 μM. Controls include cell samples with media only, cell samples with DMSO only (no compound), and cell samples with reference compound.
(§6) The solution of test compound is added at 60 μM to the first well containing RPMI complete and serial 3 fold dilutions are made in the wells. The PBMC suspension is then added to the wells in an equal volume, bringing the test compound concentrations to the desired range (usually 30-0.014 μM). The final concentration of PBMC suspension is 2×10^6 cells/mL. The plates are covered with sterile plastic lids, mixed gently and then incubated for 18 to 24 hours at 37° C. in a 5% carbon dioxide atmosphere.
(§7) Following incubation the plates are centrifuged for 10 minutes at 1000 rpm (approximately 200×g) at 4° C. The cell-free culture supernatant is removed and transferred to sterile polypropylene tubes. Samples are maintained at −30 to −70° C. until analysis. The samples are analyzed for IFN-α by ELISA and for TNF-α by IGEN/BioVeris Assay.
(§8) Interferon (α) and Tumor Necrosis Factor (α) Analysis
IFN-α concentration is determined with a human multi-subtype calorimetric sandwich ELISA (Catalog Number 41105) from PBL Biomedical Laboratories, Piscataway, N.J. Results are expressed in pg/mL.
(§9) In total, the data output of the assay consists of concentration values of TNF-α and IFN-α (y-axis) as a function of compound concentration (x-axis).
Analysis of the data has two steps. First, the greater of the mean DMSO (DMSO control wells) or the experimental background (usually 20 pg/mL for IFN-α and 40 pg/mL for TNF-α) is subtracted from each reading. If any negative values result from background subtraction, the reading is reported as “*”, and is noted as not reliably detectable. In subsequent calculations and statistics, “*”, is treated as a zero. Second, all background subtracted values are multiplied by a single adjustment ratio to decrease experiment to experiment variability. The adjustment ratio is the area of the reference compound in the new experiment divided by the expected area of the reference compound based on the past 61 experiments (unadjusted readings). […] The reference compound used is 2-[4-amino-2-ethoxymethyl-6,7,8,9-tetrahydro-α,α-dimethyl-1H-imidazo[4,5-c]quinolin-1-yl]ethanol hydrate (U.S. Pat. No. 5,352,784; Example 91) and the expected area is the sum of the median dose values from the past 61 experiments. […]

[2] = tested on: tumor necrosis factor (α) (TNF-α); assay: Cytokine induction in human cells: TNF-α secreted by PBMC into culture media (ORIGEN M-Series immunoassay); assay type: cell-based; parameters: key to Maximal Response (pg/mL) TNF / Maximal Response TNF: If any negative values result from background subtraction, the reading is reported as “*”, and is noted as not reliably detectable; conditions: for Maximal Response TNF / Maximal Response (pg/mL) TNF: median; for Minimum Effective Concentration TNF: median where tested in more than one experiment; for Maximal Response (pg/mL) TNF: maximal response in dose response curve
From the text: as §1, §2, §3, §4, §5, §6, §7, §8
The TNF-α concentration is determined by ORIGEN M-Series Immunoassay and read on an IGEN M-8 analyzer from BioVeris Corporation, formerly known as IGEN International, Gaithersburg, Md. The immunoassay uses a human TNF-α capture and detection antibody pair (Catalog Numbers AHC3419 and AHC3712) from Biosource International, Camarillo, Calif. Results are expressed in pg/mL.
as §9
Analysis of the data has two steps. First, the greater of the mean DMSO (DMSO control wells) or the experimental background (usually 20 pg/mL for IFN-α and 40 pg/mL for TNF-α) is subtracted from each reading. If any negative values result from background subtraction, the reading is reported as “*”, and is noted as not reliably detectable. In subsequent calculations and statistics, “*”, is treated as a zero. Second, all background subtracted values are multiplied by a single adjustment ratio to decrease experiment to experiment variability. The adjustment ratio is the area of the reference compound in the new experiment divided by the expected area of the reference compound based on the past 61 experiments (unadjusted readings). […]

[3] = Table 12, human PBMC, * = below the experimental background of 40 pg/mL
[4] = Table 11, human PBMC, * = TNF below experimental background of 40 pg/mL
[5] = Table 8, background-subtracted, reference-adjusted
[6] = Table 10, * = below experimental background level

| Compound | Maximal Response IFN ([1]; Table 11, human PBMC) [pg/mL] | Minimum Effective Concentration IFN ([1]; Table 11, human PBMC) [µM] | Minimum Effective Concentration TNF ([2]; Table 11, human PBMC) [µM] | Maximal Response TNF [2, 4] | other results |
| --- | --- | --- | --- | --- | --- |
| CC(C)Cn1c(CO)nc2c(N)nc3cccnc3c21 [Example 633, [4-Amino-1-(2-methylpropyl)-1H-imidazo[4,5-c][1,5]naphthyridin-2-yl]methanol] | – | – | – | – | Maximal Response IFN ([1]; Table 12, human PBMC): 1592 pg/mL; Maximal Response TNF [2, 3]: 363 pg/mL |
| Nc1nc2ccccc2c2c1nc(CCO)n2CCCCNC(=O)c1cnc2ccccc2c1 [Example 116] | 8361 | 0.37 | 30 | 1112 pg/mL | – |
| Nc1nc2ccccc2c2c1nc(CCO)n2CCCCCCCCNC(=O)Nc1ccccc1 [Example 118] | 5177 | 0.37 | >30 | * | – |
| CCOCc1nc2c(N)nc3cccnc3c2n1CC(C)(C)O [Analog 6, 1-(4-amino-2-ethoxymethyl-1H-imidazo[4,5-c][1,5]naphthyridin-1-yl)-2-methylpropan-2-ol] | – | – | – | – | Maximal Response (pg/mL) IFN [1, 5]: 658 pg/mL; Maximal Response IFN ([1]; Table 12, human PBMC): 1674 pg/mL; Maximal Response (pg/mL) TNF [2, 5]: 4921 pg/mL; Maximal Response TNF [2, 3]: 7275 pg/mL |
| CCc1nc2c(N)nc3ccccc3c2n1CCCCCS(C)(=O)=O [Analog 74] | 1062 | 0.12 | 1.11 | 1545 pg/mL | – |
| CCOCc1nc2c(N)nc3ccccc3c2n1CC(C)(C)CNC(=O)Nc1ccccc1 [Analog 91] | 1133 | 0.014 | 0.04 | 3618 pg/mL | – |
| Cc1nc2c(N)nc3ccccc3c2n1CCCNC(=O)c1ccccc1 [Analog 101] | 571 | 1.11 | 3.33 | 156 pg/mL | – |
| COCCc1nc2c(N)nc3ccccc3c2n1CC(C)(C)CN [Analog 100] | 571 | 0.014 | 0.04 | 17626 pg/mL | – |
| CCc1nc2c(N)nc3cccnc3c2n1CC(C)(C)O [Analog 127, 1-(4-amino-2-ethyl-1H-imidazo[4,5-c][1,5]naphthyridin-1-yl)-2-methylpropan-2-ol] | – | – | – | – | Maximal Response IFN ([1]; Table 12, human PBMC): 2150 pg/mL; Maximal Response TNF [2, 3]: 3863 pg/mL |
| CCOCc1nc2c(N)nc3cc(-c4ccccc4)ccc3c2n1CC(C)(C)O [Analog 24] | – | – | – | – | minimal effective concentration ([1]; Table 10, human PBMC, lowest tested concentration inducing IFN-α over usually 20 pg/mL, median where more than one experiment, read-out: Minimum Effective Concentration (μM) IFN): 0.014 µM; Maximal Response (pg/mL) IFN [1, 6]: 440 pg/mL; minimal effective concentration ([2]; Table 10, human PBMC, lowest tested concentration inducing TNF-α over usually 40 pg/mL, median where more than one experiment, read-out: Minimum Effective Concentration (μM) TNF): 0.12 µM; Maximal Response (pg/mL) TNF [2, 6]: 2238 pg/mL |
| COCCc1nc2c(N)nc3ccccc3c2n1CCCCCCCCNS(C)(=O)=O [Analog 118] | 1914 | 0.014 | 0.014 | 1853 pg/mL | – |
